One assay relates to NF-κB in Jurkat cells. The assay can be described thus: EMSA of TNF-induced NF-κB activation. Format: cell-based, human. To be noted: for TNF-induced NF-κB activation: Jurkat cells; for decrease in NF-κB levels: pretreatment with 2 ml (so in the source), TNF 100 pM. The protocol:
Next, in order to further study the mechanism by which the active components inhibited tumor cells, the TNF-alpha induced activation of the transcription factor NF-κB was analyzed in Jurkat cells (3×10^6) which had been treated with 1-2 μg/ml of UA-BRF-004-DELEP-F035 and UA-BRF-004Pod-DELEP-F094. The study was carried out as follows: Jurkat cells were pretreated with 1-2 μg/ml of F035 or F094 for 15 h at 37° C. Cells were harvested and resuspended in 1 ml RPMI and treated with 100 pM of TNF-alpha for 30 min at 37° C. After TNF-alpha treatment, nuclear extracts were prepared according to Schreiber et al (1989). Briefly, the cells were washed with ice cold PBS and suspended in 0.4 ml of lysis buffer (10 mM HEPES, pH 7.9, 10 mM KCl, 0.1 mM EDTA, […], 0.1 mM EGTA, 1 mM dithiothreitol, 0.5 mM PMSF, 2 μg/ml of leupeptin, 2 μg/ml of aprotinin and 0.5 mg/ml benzamidine). The cells were allowed to sit on ice for 15 min and 25 μl of 10% Nonidet-40 was added to the cells. The tubes were mixed on the vortex and microcentrifuged for 30 s. The nuclear pellet was resuspended in 25 μl of ice cold nuclear extraction buffer (20 mM HEPES, pH 7.9, 0.4 M NaCl, 1 mM EDTA, 1 mM EGTA, 1 mM dithiothreitol, 1 mM PMSF, 2 μg/ml leupeptin, 2.0 μg/ml aprotinin and 0.5 mg/ml benzamidine) and tubes were incubated on ice with intermittent agitation. The nuclear extract was microcentrifuged for […] at 4° C. and supernatants were stored at −70° C.
An electrophoretic mobility shift assay was performed by incubating the nuclear extracts (7 μg of protein) with ^32P-labeled NF-κB oligonucleotides (SEQ ID NO:1; NF-κB consensus oligonucleotide; Santa Cruz Biotechnology) in presence of 0.5 μg of poly di-dc in a binding buffer (25 mM HEPES, pH 7.9, 0.5 mM EDTA, 0.5 mM dithiothreitol, 1% Nonidet P-40, 5% glycerol and 50 mM NaCl for 20 min at 37° C.) (Nabel and Baltimore, 1987; Collart et al., 1990; Hassanain et al., 1993). The DNA-protein complex formed was separated from free oligonucleotide on 5% native polyacrylamide gel using buffer containing 50 mM Tris, 200 mM glycine and 1 mM EDTA. The gel was fixed in 10% acetic acid and dried and the bands were visualized using autoradiography with intensifying screen at −70° C.
An EMSA to study the effect of crude (F035) and pure extracts D1 and G1 on TNF (Genetech Inc.) induced NF-κB was done as described earlier. Jurkat cells (1×10^6/ml) were treated with different concentrations of crude and pure extracts for 15 hr at 37° C. Next the cells were exposed to 100 pM of TNF for 15 min at 37° C. Nuclear extracts were prepared as described before. Nuclear extracts were incubated with 16 fmol ^32P-end-labeled 45-mer double-stranded NF-κB oligonucleotide from the human immunodeficiency virus long terminal repeat,
for 15 min at 37° C. in the presence of 2 μg of poly (dI-dC). The DNA protein complex was separated from free oligonucleotide on 7.5% native polyacrylamide gels. The radioactive bands from the dried gels were visualized and quantitated by a PhosphoImager (Molecular Dynamics, Sunnyvale, Calif.) using ImageQuant software.
Treatment of Cells with Monoterpene Glycosides. Jurkat cells were taken at 1×10^6/ml in complete medium and treated with 2 μg/ml of F094, monoterpene/triterpene glycoside D1, or monoterpene/triterpene glycoside G1 for 8-16 h at 37° C. At the end of the treatment, cells were washed in complete medium and counted. An equal number of viable cells was used for different experiments.
Preparation of Cytoplasmic and Nuclear Extracts. Jurkat cells (2×10^6/ml) treated with F094 or the isolated monoterpene/triterpene glycosides G1 and/or D1 were exposed to TNF (1 nM for 15 min) at 37° C. After washing the cells in cold PBS, they were suspended in 0.4 ml of cytoplasmic extraction buffer (10 mM HEPES, pH 7.9, 10 mM KCl, 0.1 mM EDTA, 0.1 mM EGTA, 1 mM DTT, 0.5 mM phenylmethylsulfonylfluoride (PMSF), 2 μg/ml of leupeptin, 2 μg/ml aprotinin, 0.5 mg/ml benzamidine) for 15 min on ice. […]
(In general: Mobility shift assays separate free from complexed probe on a gel.)

The subject of another assay is AKT in Jurkat cells. Description: Western blot of phosphorylated and total AKT. Format: cell-based, human. To be noted: 2 μg/ml (F035 printed '2 ml'), 15 hr. The protocol: The effect of F035 on phosphorylation of AKT was analyzed as follows. Jurkat cells (5×10^6) were serum starved and exposed to F035 for 15 h and 2 h with wortmannin at 37° C. The cells were either induced with cd3XL (cd3 crosslink) or left uninduced for 10 min at 37° C. and lysed in AKT lysis buffer and the proteins were resolved on 8% SDS-PAGE gels and analyzed by western-ECL using phospho-specific AKT (Ser 473; New England Biolabs) and total AKT antibody. An assay of the effect of F035 on p70S6 kinase can be carried out similarly, but using a Phosphoplus p70S6 kinase antibody kit (New England Biolabs) for analysis of p70S6 kinase (Ser 411, thr421/ser424) phosphorylation. […] There was, however, no change in the expression of total AKT.
The expression of total and phosphorylated forms of AKT was determined by western blot analysis. Jurkat cells cultured in medium containing 0.5% FBS were treated with F035 and pure extracts D1 and G1 (2.0 μg/ml) for 15 h at 37° C. The cells were lysed in AKT Iysis buffer (20 mM Tris-HCl, 150 mM NaCI, 1 mM EDTA, 1 mM EGTA, 1% Triton X-100, 2.5 mM sodium pyrophosphate, 1 mM 8-glycerol phosphate, 1 mM Na3VO4, […], 1 mM PMSF pH 7.5). Cellular protein (40 μg) was resolved on 8% SDS-polyacrylamide gel and electrotransferred onto nitrocellulose membrane. Membranes were probed first with phosphospecific AKT (Ser 473) or AKT antibody followed by goat anti rabbit antibody conjugated to horseradish peroxidase. Proteins were detected by chemiluminescence (ECL, Amersham, Arlington Heights, Ill.).

As for `C=C[C@](C)(O)CC/C=C(\CO)C(=O)O[C@H]1[C@H](O)[C@@H](O)[C@H](O[C@@](C)(C=C)CC/C=C(\CO)C(=O)O[C@H]2C[C@]3(C(=O)O[C@@H]4O[C@H](CO)[C@@H](O)[C@H](O)[C@H]4O[C@@H]4O[C@@H](C)[C@H](O[C@@H]5O[C@@H](CO)[C@H](O)[C@H]5O)[C@@H](O[C@@H]5O[C@H](CO)[C@@H](O)[C@H](O)[C@H]5O)[C@H]4O)[C@H](O)C[C@]4(C)C(=CC[C@@H]5[C@@]6(C)CC[C@H](O[C@@H]7O[C@H](CO[C@@H]8O[C@H](C)[C@H](O)[C@H](O)[C@H]8O[C@@H]8OC[C@@H](O)[C@H](O)[C@H]8O)[C@@H](O)[C@H](O)[C@H]7NC(C)=O)C(C)(C)[C@@H]6CC[C@]54C)[C@@H]3CC2(C)C)O[C@@H]1C` [Fraction D1], the “TNF-induced NF-κB activation” value with NF-κB in Jurkat cells is recorded as “potent inhibitors”. Moreover, the “decrease in NF-κB levels” value in the assay with NF-κB in Jurkat cells (Jurkat) is reported as 87%. In the assay on AKT in Jurkat cells, the AKT phosphorylation result was “inhibited AKT phosphorylation” and the “total AKT protein” value is “inhibited”.

In the case of `C=C[C@](C)(O)CC/C=C(\C)C(=O)O[C@H]1[C@H](O)[C@@H](O)[C@H](O[C@@](C)(C=C)CC/C=C(\CO)C(=O)O[C@H]2C[C@]3(C(=O)O[C@@H]4O[C@H](CO)[C@@H](O)[C@H](O)[C@H]4O[C@@H]4O[C@@H](C)[C@H](O[C@@H]5O[C@@H](CO)[C@H](O)[C@H]5O)[C@@H](O[C@@H]5O[C@H](CO)[C@@H](O)[C@H](O)[C@H]5O)[C@H]4O)[C@H](O)C[C@]4(C)C(=CC[C@@H]5[C@@]6(C)CC[C@H](O[C@@H]7O[C@H](CO[C@@H]8O[C@H](C)[C@H](O)[C@H](O)[C@H]8O[C@@H]8OC[C@@H](O)[C@H](O)[C@H]8O)[C@@H](O)[C@H](O)[C@H]7NC(C)=O)C(C)(C)[C@@H]6CC[C@]54C)[C@@H]3CC2(C)C)O[C@@H]1C` [Fraction G1], in the assay on NF-κB in Jurkat cells (Jurkat), the “potency in inhibiting TNF-induced NF-κB relative to mixture” value is “more potent than the mixture” and the “decrease in NF-κB levels” value came out at 54%. Moreover, the “TNF-induced NF-κB activation” value in the assay on NF-κB in Jurkat cells is recorded as “potent inhibitors”. The “decrease in TNF-induced NF-κB” value with NF-κB in Jurkat cells (Jurkat, 0.5 μg/ml for 16 h, TNF 1 nM) was roughly 50%. Further, the “effect of DTT (100 μM, 2 h pretreatment) on inhibition of NF-κB activation” value with NF-κB in Jurkat cells (Jurkat, 2 μg/ml for 8 h) is “reversed”. In addition, the “inhibition of TNF-induced NF-κB” value in the assay with NF-κB in Jurkat cells (Jurkat, 2 μg/ml for 16 h, TNF 1 nM) is “almost complete inhibition”. Moreover, the “time of maximal inhibition of TNF-induced NF-κB” value in the assay with NF-κB in Jurkat cells (Jurkat, 2 μg/ml, 1-16 hours, TNF 1 nM) turned out to be 16 h. Besides, in the assay on AKT in Jurkat cells, the AKT phosphorylation entry is “inhibited AKT phosphorylation” and the “total AKT protein” value is on record as “inhibited”.
